Residues, ends and D or L forms follow the SMILES beside them.
target: T1, human Glucagon-R (Homo sapiens, UniProt P47871); experiment: Glucagon receptor efficacy assay (cAMP generation in HEK293 cells); assay type: cell-based; conditions: cAMP generation in HEK293 cells expressing Glucagon receptor
T1 construct: The DNA encoding the Glucagon-R or the GLP-1-R was amplified by PCR using primers encoding terminal restriction sites for subcloning; expressed in transfected cells
Text: (§1) The DNA encoding the Glucagon-R or the GLP-1-R was amplified by PCR using primers encoding terminal restriction sites for subcloning. The 5′-end primers additionally encoded a near Kozak consensus sequence to ensure efficient translation. The fidelity of the DNA encoding the Glucagon-R and the GLP-1-R was confirmed by DNA sequencing. The PCR products encoding the Glucagon-R or the GLP-1-R were subcloned into a mammalian expression vector containing a neomycin (G418) resistance marker. The mammalian expression vectors encoding the Glucagon-R or the GLP-1-R were transfected into HEK293 cells by a standard calcium phosphate transfection method. 48 hr after transfection cells were seeded for limited dilution cloning and selected with 1 mg/ml G418 in the culture medium. Three weeks later 12 surviving colonies of Glucagon-R and GLP-1-R expressing cells were picked, propagated and tested in the Glucagon-R and GLP-1-R efficacy assays as described below. One Glucagon-R expressing clone and one GLP-1-R expressing clone were chosen for compound profiling.
(§2) On the day of analysis, growth medium was removed and the cells washed once with 200 μl Tyrode buffer. Cells were incubated in 100 μl Tyrode buffer containing increasing concentrations of test peptides, 100 μM IBMX, and 6 mM glucose for up 15 min at 37° C. The reaction was stopped by addition of 25 μl 0.5 M HCl and incubated on ice for 60 min. The cAMP content was estimated using the FlashPlate® cAMP kit from Perkin-Elmer according to manufacturer instructions. EC50 and relative efficacies compared to reference compounds (glucagon and GLP-1) were estimated by computer aided curve fitting.

T1 sequence (P47871 26-477): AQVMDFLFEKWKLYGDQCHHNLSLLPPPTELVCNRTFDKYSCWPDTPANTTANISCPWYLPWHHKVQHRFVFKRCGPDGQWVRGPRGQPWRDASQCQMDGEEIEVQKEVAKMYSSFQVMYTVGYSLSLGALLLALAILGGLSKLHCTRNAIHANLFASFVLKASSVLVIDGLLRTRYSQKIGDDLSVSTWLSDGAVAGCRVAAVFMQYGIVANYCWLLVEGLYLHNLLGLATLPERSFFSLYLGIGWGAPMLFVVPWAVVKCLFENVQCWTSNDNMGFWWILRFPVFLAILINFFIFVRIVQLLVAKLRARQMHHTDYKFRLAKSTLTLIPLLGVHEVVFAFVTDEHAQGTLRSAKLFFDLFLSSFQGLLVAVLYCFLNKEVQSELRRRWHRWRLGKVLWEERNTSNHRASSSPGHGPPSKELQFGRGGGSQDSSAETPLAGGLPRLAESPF

SMILES	EC50 [pM]
CCCCCCCCCCCCCCCC(=O)N[C@@H](CCC(=O)NCCCC[C@H](NC(=O)[C@H](CCC(=O)O)NC(=O)[C@H](CC(=O)O)NC(=O)[C@H](CC(C)C)NC(=O)[C@H](Cc1ccc(O)cc1)NC(=O)[C@H](CCCNC(=N)N)NC(=O)[C@H](CO)NC(=O)[C@H](Cc1ccc(O)cc1)NC(=O)[C@H](CC(=O)O)NC(=O)[C@H](CO)NC(=O)[C@@H](NC(=O)[C@H](Cc1ccccc1)NC(=O)[C@@H](NC(=O)CNC(=O)[C@H](Cc1c[nH]cn1)NC(=O)[C@H](CO)NC(=O)[C@@H](N)Cc1c[nH]cn1)[C@@H](C)O)[C@@H](C)O)C(=O)N[C@@H](CCCNC(=N)N)C(=O)N[C@@H](C)C(=O)N[C@@H](CCCNC(=N)N)C(=O)N[C@@H](CC(=O)O)C(=O)N[C@@H](Cc1ccccc1)C(=O)N[C@H](C(=O)N[C@@H](CCC(=O)O)C(=O)N[C@@H](Cc1c[nH]c2ccccc12)C(=O)N[C@@H](CC(C)C)C(=O)N[C@@H](CC(C)C)C(=O)N[C@@H](CO)C(=O)N[C@@H](C)C(N)=O)[C@@H](C)CC)C(=O)O [Compound 10] (HELM PEPTIDE1{H.S.H.G.T.F.T.S.D.Y.S.R.Y.L.D.E.K.R.A.R.D.F.I.E.W.L.L.S.A.[am]}|PEPTIDE2{[CCCCCCCCCCCCCCCC(=O)[*:2]].[gGlu]}$PEPTIDE1,PEPTIDE2,17:R3-2:R2$$$V2.0)	60

target: T2, human GLP-1-R (Homo sapiens, UniProt P43220); experiment: GLP-1 receptor efficacy assay (cAMP generation in HEK293 cells); assay type: cell-based; conditions: cAMP generation in HEK293 cells expressing GLP-1 receptor
T2 construct: The DNA encoding the Glucagon-R or the GLP-1-R was amplified by PCR using primers encoding terminal restriction sites for subcloning; expressed in transfected cells
Text: as §1, §2

T2 sequence (P43220 24-463): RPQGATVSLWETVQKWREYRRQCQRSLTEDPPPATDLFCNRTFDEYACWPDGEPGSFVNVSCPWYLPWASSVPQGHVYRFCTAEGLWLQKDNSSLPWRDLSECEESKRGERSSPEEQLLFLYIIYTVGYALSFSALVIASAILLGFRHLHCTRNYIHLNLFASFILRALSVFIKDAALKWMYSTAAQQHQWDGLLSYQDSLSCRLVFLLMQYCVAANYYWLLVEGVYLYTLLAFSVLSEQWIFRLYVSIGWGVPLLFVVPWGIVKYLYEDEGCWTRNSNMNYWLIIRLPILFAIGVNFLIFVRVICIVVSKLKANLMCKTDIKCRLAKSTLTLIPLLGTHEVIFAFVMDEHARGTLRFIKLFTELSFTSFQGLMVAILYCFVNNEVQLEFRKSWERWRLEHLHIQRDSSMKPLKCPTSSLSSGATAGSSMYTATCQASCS

SMILES	EC50 [pM]
CCCCCCCCCCCCCCCC(=O)N[C@@H](CCC(=O)NCCCC[C@H](NC(=O)[C@H](CC(=O)O)NC(=O)[C@H](CC(C)C)NC(=O)[C@H](Cc1ccc(O)cc1)NC(=O)[C@H](CCCCN)NC(=O)[C@H](CO)NC(=O)[C@H](Cc1ccc(O)cc1)NC(=O)[C@H](CC(=O)O)NC(=O)[C@H](CO)NC(=O)[C@@H](NC(=O)[C@H](Cc1ccccc1)NC(=O)[C@@H](NC(=O)CNC(=O)[C@H](CCC(N)=O)NC(=O)C(C)(C)NC(=O)[C@@H](N)Cc1c[nH]cn1)[C@@H](C)O)[C@@H](C)O)C(=O)N[C@@H](CCCNC(=N)N)C(=O)N[C@@H](CCCNC(=N)N)C(=O)N[C@@H](C)C(=O)N[C@@H](CCCCN)C(=O)N[C@@H](CC(=O)O)C(=O)N[C@@H](Cc1ccccc1)C(=O)N[C@H](C(=O)N[C@@H](CCC(=O)O)C(=O)N[C@@H](Cc1c[nH]c2ccccc12)C(=O)N[C@@H](CC(C)C)C(=O)N[C@@H](CC(C)C)C(=O)N[C@@H](CO)C(=O)N[C@@H](C)C(N)=O)[C@@H](C)CC)C(=O)O [Compound 1] (HELM PEPTIDE1{H.[Aib].Q.G.T.F.T.S.D.Y.S.K.Y.L.D.K.R.R.A.K.D.F.I.E.W.L.L.S.A.[am]}|PEPTIDE2{[CCCCCCCCCCCCCCCC(=O)[*:2]].[gGlu]}$PEPTIDE1,PEPTIDE2,16:R3-2:R2$$$V2.0)	120
CCCCCCCCCCCCCCCC(=O)N[C@@H](CCC(=O)NCCCC[C@H](NC(=O)[C@H](CCC(=O)O)NC(=O)[C@H](CC(=O)O)NC(=O)[C@H](CC(C)C)NC(=O)[C@H](Cc1ccc(O)cc1)NC(=O)[C@H](CCCNC(=N)N)NC(=O)[C@H](CO)NC(=O)[C@H](Cc1ccc(O)cc1)NC(=O)[C@H](CC(=O)O)NC(=O)[C@H](CO)NC(=O)[C@@H](NC(=O)[C@H](Cc1ccccc1)NC(=O)[C@@H](NC(=O)CNC(=O)[C@H](Cc1c[nH]cn1)NC(=O)C(C)(C)NC(=O)[C@@H](N)Cc1c[nH]cn1)[C@@H](C)O)[C@@H](C)O)C(=O)N[C@@H](CCCNC(=N)N)C(=O)N[C@@H](C)C(=O)N[C@@H](CCCNC(=N)N)C(=O)N[C@@H](CC(=O)O)C(=O)N[C@@H](Cc1ccccc1)C(=O)N[C@H](C(=O)N[C@@H](CCC(=O)O)C(=O)N[C@@H](Cc1c[nH]c2ccccc12)C(=O)N[C@@H](CC(C)C)C(=O)N[C@@H](CC(C)C)C(=O)N[C@@H](CO)C(=O)N[C@@H](C)C(N)=O)[C@@H](C)CC)C(=O)O [Compound 12] (HELM PEPTIDE1{H.[Aib].H.G.T.F.T.S.D.Y.S.R.Y.L.D.E.K.R.A.R.D.F.I.E.W.L.L.S.A.[am]}|PEPTIDE2{[CCCCCCCCCCCCCCCC(=O)[*:2]].[gGlu]}$PEPTIDE1,PEPTIDE2,17:R3-2:R2$$$V2.0)	60
CCCCCCCCCCCCCCCC(=O)N[C@@H](CCC(=O)NCCCC[C@H](NC(=O)[C@H](CCC(=O)O)NC(=O)[C@H](CC(=O)O)NC(=O)[C@H](CC(C)C)NC(=O)[C@H](Cc1ccc(O)cc1)NC(=O)[C@H](CCCNC(=N)N)NC(=O)[C@H](CO)NC(=O)[C@H](Cc1ccc(O)cc1)NC(=O)[C@H](CC(=O)O)NC(=O)[C@H](CO)NC(=O)[C@@H](NC(=O)[C@H](Cc1ccccc1)NC(=O)[C@@H](NC(=O)CNC(=O)[C@@H]1CCCN1C(=O)[C@@H](CO)NC(=O)[C@@H](N)Cc1c[nH]cn1)[C@@H](C)O)[C@@H](C)O)C(=O)N[C@@H](CCCNC(=N)N)C(=O)N[C@@H](C)C(=O)N[C@@H](CCCNC(=N)N)C(=O)N[C@@H](CC(=O)O)C(=O)N[C@@H](Cc1ccccc1)C(=O)N[C@H](C(=O)N[C@@H](CCC(=O)O)C(=O)N[C@@H](Cc1c[nH]c2ccccc12)C(=O)N[C@@H](CC(C)C)C(=O)N[C@@H](CC(C)C)C(=O)N[C@@H](CO)C(=O)N[C@@H](C)C(N)=O)[C@@H](C)CC)C(=O)O [Compound 14] (HELM PEPTIDE1{H.[dS].P.G.T.F.T.S.D.Y.S.R.Y.L.D.E.K.R.A.R.D.F.I.E.W.L.L.S.A.[am]}|PEPTIDE2{[CCCCCCCCCCCCCCCC(=O)[*:2]].[gGlu]}$PEPTIDE1,PEPTIDE2,17:R3-2:R2$$$V2.0)	120
CCCCCCCCCCCCCCCC(=O)N[C@@H](CCC(=O)NCCCC[C@H](NC(=O)[C@H](CCC(=O)O)NC(=O)[C@H](CC(=O)O)NC(=O)[C@H](CC(C)C)NC(=O)[C@H](Cc1ccc(O)cc1)NC(=O)[C@H](CCCNC(=N)N)NC(=O)[C@H](CO)NC(=O)[C@H](Cc1ccc(O)cc1)NC(=O)[C@H](CC(=O)O)NC(=O)[C@H](CO)NC(=O)[C@@H](NC(=O)[C@H](Cc1ccccc1)NC(=O)[C@@H](NC(=O)CNC(=O)[C@@H]1CCCN1C(=O)C(C)(C)NC(=O)[C@@H](N)Cc1c[nH]cn1)[C@@H](C)O)[C@@H](C)O)C(=O)N[C@@H](CCCNC(=N)N)C(=O)N[C@@H](C)C(=O)N[C@@H](CCCNC(=N)N)C(=O)N[C@@H](CC(=O)O)C(=O)N[C@@H](Cc1ccccc1)C(=O)N[C@H](C(=O)N[C@@H](CCC(=O)O)C(=O)N[C@@H](Cc1c[nH]c2ccccc12)C(=O)N[C@@H](CC(C)C)C(=O)N[C@@H](CC(C)C)C(=O)N[C@@H](CO)C(=O)N[C@@H](C)C(N)=O)[C@@H](C)CC)C(=O)O [Compound 15] (HELM PEPTIDE1{H.[Aib].P.G.T.F.T.S.D.Y.S.R.Y.L.D.E.K.R.A.R.D.F.I.E.W.L.L.S.A.[am]}|PEPTIDE2{[CCCCCCCCCCCCCCCC(=O)[*:2]].[gGlu]}$PEPTIDE1,PEPTIDE2,17:R3-2:R2$$$V2.0)	60
CCCCCCCCCCCCCCCC(=O)N[C@@H](CCC(=O)NCCCC[C@H](NC(=O)[C@H](CCC(=O)O)NC(=O)[C@H](CC(=O)O)NC(=O)[C@H](CC(C)C)NC(=O)[C@H](Cc1ccc(O)cc1)NC(=O)[C@H](CCCNC(=N)N)NC(=O)[C@H](CO)NC(=O)[C@H](Cc1ccc(O)cc1)NC(=O)[C@H](CC(=O)O)NC(=O)[C@H](CO)NC(=O)[C@@H](NC(=O)[C@H](Cc1ccccc1)NC(=O)[C@@H](NC(=O)CNC(=O)[C@H](CCC(N)=O)NC(=O)C(C)(C)NC(=O)[C@@H](N)Cc1c[nH]cn1)[C@@H](C)O)[C@@H](C)O)C(=O)N[C@@H](CCCNC(=N)N)C(=O)N[C@@H](C)C(=O)N[C@@H](CCCCN)C(=O)N[C@@H](CC(=O)O)C(=O)N[C@@H](Cc1ccccc1)C(=O)N[C@H](C(=O)N[C@@H](CCC(=O)O)C(=O)N[C@@H](Cc1c[nH]c2ccccc12)C(=O)N[C@@H](CC(C)C)C(=O)N[C@@H](CC(C)C)C(=O)N[C@@H](CO)C(=O)N[C@@H](C)C(N)=O)[C@@H](C)CC)C(=O)O [Compound 16] (HELM PEPTIDE1{H.[Aib].Q.G.T.F.T.S.D.Y.S.R.Y.L.D.E.K.R.A.K.D.F.I.E.W.L.L.S.A.[am]}|PEPTIDE2{[CCCCCCCCCCCCCCCC(=O)[*:2]].[gGlu]}$PEPTIDE1,PEPTIDE2,17:R3-2:R2$$$V2.0)	60
CCCCCCCCCCCCCCCC(=O)N[C@@H](CCC(=O)NCCCC[C@H](NC(=O)[C@H](CCC(=O)O)NC(=O)[C@H](CC(=O)O)NC(=O)[C@H](CC(C)C)NC(=O)[C@H](Cc1ccc(O)cc1)NC(=O)[C@H](CCCCN)NC(=O)[C@H](CO)NC(=O)[C@H](Cc1ccc(O)cc1)NC(=O)[C@H](CC(=O)O)NC(=O)[C@H](CO)NC(=O)[C@@H](NC(=O)[C@H](Cc1ccccc1)NC(=O)[C@@H](NC(=O)CNC(=O)[C@H](CCC(N)=O)NC(=O)[C@@H](CO)NC(=O)[C@@H](N)Cc1c[nH]cn1)[C@@H](C)O)[C@@H](C)O)C(=O)N[C@@H](CCCNC(=N)N)C(=O)N[C@@H](C)C(=O)N[C@@H](CCCCN)C(=O)N[C@@H](CC(=O)O)C(=O)N[C@@H](Cc1ccccc1)C(=O)N[C@H](C(=O)N[C@@H](CCC(=O)O)C(=O)N[C@@H](Cc1c[nH]c2ccccc12)C(=O)N[C@@H](CC(C)C)C(=O)N[C@@H](CC(C)C)C(=O)N[C@@H](CO)C(=O)N[C@@H](C)C(N)=O)[C@@H](C)CC)C(=O)O [Compound 17] (HELM PEPTIDE1{H.[dS].Q.G.T.F.T.S.D.Y.S.K.Y.L.D.E.K.R.A.K.D.F.I.E.W.L.L.S.A.[am]}|PEPTIDE2{[CCCCCCCCCCCCCCCC(=O)[*:2]].[gGlu]}$PEPTIDE1,PEPTIDE2,17:R3-2:R2$$$V2.0)	70
